Earlier results on 1 compound are cited in patent US20050163842A1, “Rosiglitazone and metformin formulations” (priority 2003, published 2005).

In data set [1] the test system is animal models of type 2 diabetes.

Structures are written as SMILES.

On to `CN(CCOc1ccc(CC2SC(=O)NC2=O)cc1)c1ccccn1` (stereo not drawn) [Rosiglitazone, 5-[4-[2-(N-methyl-N-(2-pyridyl)amino)ethoxy]benzyl]thiazolidine-2,4-dione], for which, in the data set with mouse models of diabetes (mouse models), the “development of overt diabetes” value is listed as “prevent the development of overt diabetes”. For the same compound, in the data set on mouse models of diabetes (several mouse models of diabetes), the “blood glucose levels and hyperinsulinemia” value was “reduce blood glucose levels and hyperinsulinemia”. Moreover, the “hypoglycemia or impaired glucose tolerance” value in data set [1] was “did not induce hypoglycemia or impaired glucose tolerance”.
